Data from patent publication US5177188A, “Methods and compositions for diagnosing chronic immune thrombocytopenic purpura” (The Scripps Research Institute, priority 1990, dated 1993).

How the values were obtained:
Design in all cases: species or system human
[1] = tested on: plasma autoantibodies (anti-GPIIIa) of chronic ITP patients; assay: Solid-phase radioimmunoassay: plasma autoantibody binding to well-bound synthetic GPIIIa peptide
Protocol: Microtiter wells were activated with 100 μl of 0.1% glutaraldehyde in coating buffer (0.1M NaHCO3, pH 8.3) for 1 hr at room temperature (RT). Wells were washed twice with PBS and then incubated for 2 hr at PT with 1 μg of each synthetic peptide in 100 μl of coating buffer. After 6 washes with 0.05% Tween-20 (Sigma Chemical Co., St. Louis, MO) in PBS (wash buffer), each well was incubated with 200 μl of 2% BSA in wash buffer for 1 hr at RT. The wells were washed 6 times, followed by the addition to triplicate wells of 100 μl of plasma diluted 1/10 in wash buffer. After incubation for 1 hr and 6 washes, 100 μl of radiolabeled anti-human igG in wash buffer (100,000 cpm) was added to each well. After a final 1 hr incubation and 6 washes, well-bound radioactivity was determined. Data were expressed as a ratio: Mean cpm bound to GPIIIa peptide divided by mean cpm bound to control peptide (P10).
Nine synthetic peptides corresponding to different sequences within platelet GPIIIa (P1-P9, Table 1) were used as antigenic targets. A synthetic peptide of human HLA Class I heavy chain was used as a control (P10). Plasma from 13 patients with chronic ITP was studied. […] These 2 hydrophilic overlapping peptides are located at the carboxyterminal region of GPIIIa and together comprise the portion of the molecule considered to be the cytoplasmic domain. Plasma for patients ITP-1 and ITP-2 bound to peptide 9 with mean ratios of 32.4 (3 studies) and 5.8 (2 studies), respectively, while patient ITP-3 plasma bound to both peptides 8 and 9 (mean ratios of 13.3 and 3.3, respectively; 3 studies) and patients ITP-4 and ITP-5 bound to peptide 8 (mean ratios of 3.6, 2 studies and 9.4, 2 studies).

[2] = tested on: autoantibody binding to washed platelets; assay: Inhibition of autoantibody binding to washed platelets by peptide
Protocol: Washed platelets (3×10^7) were incubated with patient plasma (ITP-1-15 μl, ITP-2-60 μl, ITP-3-30 μl) in a total volume of 200 μl citrate buffer for 2 hrs at room temperature, followed by 4 washes. After resuspension in 300 μl of citrate buffer, platelets were lysed with 33 μl of 10% Triton X-100 in citrate buffer. Next, 100 μl of lysate was added to wells coated with murine anti-GPIIb. Bound antibody was detected with labeled anti-human IgG as described.
(§1) To evaluate the ability of washed platelets, affinity-purified GPIIb/IIIa or synthetic peptides to block autoantibody binding, serial dilutions of platelets, GPIIb/IIIa or synthetic peptides (maximum addition: 10^10 platelets, 200 μg GPIIb/IIIa or 10 μg of peptide per 100 μl plasma, respectively) were incubated overnight at 4° C. with the patient's plasma. The preincubated plasma (100 μl 1/10 dilution) was added to replicate wells containing either GPIIb/IIIa from platelet lysate, affinity-purified GPIIb/IIIa or synthetic peptide, and antibody binding to each well was evaluated as describe above. Data were expressed as a percent of the binding of untreated plasma (% inhibition).
To evaluate the contribution of these antipeptide antibodies to the patients' total plasma anti-GPIIb/IIIa activity, the ITP plasmas were preincubated with serial dilutions of the appropriate peptide (8 or 9) and then tested in 4 different assays. In the first, the pretreated plasma was incubated with platelets. After washing and lysis, the GPIIb/IIIa complexes were captured on microtiter wells by monoclonal antibody. In the other 3 assays, pretreated plasma was added to microtiter wells coated directly with either peptide or affinity-purified GPIIb/IIIa (Aff-GPIIb/IIIa) or to microtiter wells with GPIIb/IIIa from plate let lysate immobilized by monoclonal antibody (Moab-GPIIb/IIIa). Antibody binding was detected in all assays with labeled antihuman IgG.

[3] = tested on: antipeptide antibody binding to GPIIIa peptides; assay: Inhibition of antipeptide antibody binding to GPIIIa peptides by platelets or purified GPIIb/IIIa; conditions: plasma ITP-1, -2, -3 (1/10 dilution) preincubated with inhibitor
Protocol: as §1
Three of the peptide-positive plasma samples (ITP-1, -2 and -3) were tested further; additional testing of ITP-4 and ITP-5 was not possible due to insufficient plasma.

Row | Substance | mean binding ratio (cpm bound to GPIIIa peptide / cpm bound to control peptide P10) ([1]; plasma of patient ITP-1, 1/10 dilution, 3 studies) | mean binding ratio (cpm bound to GPIIIa peptide / cpm bound to control peptide P10) ([1]; plasma of patient ITP-2, 1/10 dilution, 2 studies) | mean binding ratio (cpm bound to GPIIIa peptide / cpm bound to control peptide P10) ([1]; plasma of patient ITP-3, 1/10 dilution, 3 studies) | inhibition of autoantibody binding to washed platelets ([2]; plasma ITP-1 preincubated with peptide, 3 studies (range)) | inhibition of autoantibody binding to washed platelets ([2]; plasma ITP-2 preincubated with peptide, 2 studies) [%] | inhibition of antibody binding to both platelets and GPIIb/IIIa from platelet lysates ([2]; plasma from ITP-1 and ITP-2 preincubated with peptide, summary in discussion) [%] | inhibition of antibody reactivity of plasma with the GPIIIa peptides [3]
1 | ANNPLYKEATSTFTNITYRDT (ANNPLYDEATSTFTNITYRDT) [P9] | 32.4 | 5.8 | 3.3 | 87.8-98.0 | 94.0 | > 80 | 
2 | affinity-purified GPIIb/IIIa: GPIIb/IIIa complex eluted from an anti-GPIIb monoclonal antibody (2A9) column loaded with platelet extract |  |  |  |  |  |  | completely inhibited
